The values below are quoted from earlier work in US20240408079A1, “COMPOSITIONS AND METHODS FOR THE TREATMENT OF CANCER” (THE TRANSLATIONAL GENOMICS RESEARCH INSTITUTE, priority 2021, published 2024).

The subject of one data set is EWS-FLI. Conditions: preclinical studies.
Another data set relates to ES cell lines. Conditions: multiple ES cell lines.
The conditions of data set [1]: preclinical studies, in vivo.

On to `C/C(=N\NC(=O)c1cccc(S(=O)(=O)N2CCOCC2)c1)c1cc(Cl)ccc1O` [SP-2509], for which, in the data set with EWS-FLI, the “transcriptional profiles driven by EWS-FLI” value is “reverse the transcriptional profiles” and the tumorigenesis in vitro entry is recorded as “significantly delay tumorigenesis”.
As to Seclidemstat [SP-2577], the “tissue culture cell viability” value with ES cell lines is “ability to impair tissue culture cell viability”. In the data set on EWS-FLI, the “transcriptional profiles driven by EWS-FLI” value was “reverse the transcriptional profiles” and the tumorigenesis in vitro entry is “significantly delay tumorigenesis”. In addition, in data set [1], the antitumoral activity entry is recorded as “little antitumoral activity in vivo”.
